Assay results reported in patent publication US9611222B2, “Pyridine compounds and the uses thereof” (Purdue Pharma L.P., priority 2010, dated 2017).

Molecular target: human Nav1.7 (Homo sapiens (Human), UniProt Q15858)
Test: FLIPR or FLIPR TETRA sodium dye assay with KCl and test article pre-incubation
Assay type: cell-based
Conditions: sodium channel blocking activity, recombinant HEK293 cells, CoroNa Green dye, veratridine + scorpion venom; read-out: Nav1.7 IC50 (μM) ± SEM

Sequence of human Nav1.7 (Q15858 with tags, fused parts or gaps limits assumed): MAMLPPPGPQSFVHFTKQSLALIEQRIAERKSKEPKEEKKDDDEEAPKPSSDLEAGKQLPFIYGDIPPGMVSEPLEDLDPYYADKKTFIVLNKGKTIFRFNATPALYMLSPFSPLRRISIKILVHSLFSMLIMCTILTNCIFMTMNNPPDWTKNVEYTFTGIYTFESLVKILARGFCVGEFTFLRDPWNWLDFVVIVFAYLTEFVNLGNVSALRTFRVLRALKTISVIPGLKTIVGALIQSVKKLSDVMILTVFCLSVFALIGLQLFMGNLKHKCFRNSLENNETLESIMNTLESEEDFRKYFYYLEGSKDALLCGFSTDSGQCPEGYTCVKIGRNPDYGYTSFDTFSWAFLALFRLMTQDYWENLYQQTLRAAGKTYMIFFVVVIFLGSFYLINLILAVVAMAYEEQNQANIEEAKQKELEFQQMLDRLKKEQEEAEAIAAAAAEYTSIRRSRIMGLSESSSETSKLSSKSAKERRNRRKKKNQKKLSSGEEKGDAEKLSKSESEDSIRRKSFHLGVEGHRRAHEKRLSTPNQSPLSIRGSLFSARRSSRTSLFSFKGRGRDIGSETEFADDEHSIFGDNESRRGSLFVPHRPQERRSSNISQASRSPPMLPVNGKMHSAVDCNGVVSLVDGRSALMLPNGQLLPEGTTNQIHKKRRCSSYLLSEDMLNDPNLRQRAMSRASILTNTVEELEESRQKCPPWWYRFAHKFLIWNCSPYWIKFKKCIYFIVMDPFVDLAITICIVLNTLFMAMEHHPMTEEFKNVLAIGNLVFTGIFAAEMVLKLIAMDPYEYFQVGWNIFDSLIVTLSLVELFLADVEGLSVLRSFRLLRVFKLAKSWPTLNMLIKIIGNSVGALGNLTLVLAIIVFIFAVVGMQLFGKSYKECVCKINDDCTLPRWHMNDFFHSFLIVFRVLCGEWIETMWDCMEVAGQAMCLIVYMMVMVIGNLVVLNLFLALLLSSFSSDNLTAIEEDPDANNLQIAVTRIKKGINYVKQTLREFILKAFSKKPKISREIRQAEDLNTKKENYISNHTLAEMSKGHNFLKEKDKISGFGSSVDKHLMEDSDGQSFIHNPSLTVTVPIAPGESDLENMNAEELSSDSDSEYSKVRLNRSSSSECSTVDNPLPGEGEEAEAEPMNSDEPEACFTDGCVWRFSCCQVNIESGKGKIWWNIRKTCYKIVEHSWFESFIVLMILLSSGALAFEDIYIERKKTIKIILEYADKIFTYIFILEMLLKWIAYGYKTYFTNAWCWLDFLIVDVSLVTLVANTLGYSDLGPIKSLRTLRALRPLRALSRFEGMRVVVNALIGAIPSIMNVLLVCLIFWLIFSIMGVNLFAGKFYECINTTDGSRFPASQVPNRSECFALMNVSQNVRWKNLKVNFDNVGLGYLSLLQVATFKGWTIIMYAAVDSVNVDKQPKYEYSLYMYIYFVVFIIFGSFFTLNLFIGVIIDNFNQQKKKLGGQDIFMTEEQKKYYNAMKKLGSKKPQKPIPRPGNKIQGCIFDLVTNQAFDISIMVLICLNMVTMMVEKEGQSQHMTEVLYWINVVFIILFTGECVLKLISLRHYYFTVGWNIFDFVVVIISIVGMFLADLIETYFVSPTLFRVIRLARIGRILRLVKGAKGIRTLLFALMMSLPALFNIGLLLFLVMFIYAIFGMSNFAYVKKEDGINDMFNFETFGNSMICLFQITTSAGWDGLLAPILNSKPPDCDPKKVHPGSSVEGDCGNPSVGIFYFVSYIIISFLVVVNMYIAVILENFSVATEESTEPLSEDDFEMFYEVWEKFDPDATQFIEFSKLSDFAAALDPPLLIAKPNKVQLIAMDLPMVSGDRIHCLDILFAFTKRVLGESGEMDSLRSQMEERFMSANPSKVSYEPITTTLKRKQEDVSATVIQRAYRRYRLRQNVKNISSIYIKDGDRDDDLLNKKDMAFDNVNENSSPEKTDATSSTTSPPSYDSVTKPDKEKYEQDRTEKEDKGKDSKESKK

Cc1cc(-c2nnn(CC(N)=O)n2)cc(-c2ccc(Oc3ccc(F)cc3)cc2)n1 [compound 108, 2-(5-(2-(4-(4-fluorophenoxy)phenyl)-6-methylpyridin-4-yl)-2H-tetrazol-2-yl) acetamide]
IC50: 0.13 ± 0.01 µM
